Test results published in article doi:10.1101/2024.08.13.607785v1 (biorxiv, 2024).
Read-outs that look alike come from different tables or passages of the source. Blank lines part the entries; values can stand above or below the molecule they belong to.

Tests used:
Test in all cases: biochemical
Parameters in all cases: species or system human cell line lysate
[1] = molecular target: Dual specificity mitogen-activated protein kinase kinase 6 ; MAP2K6 ; P52564 (Homo sapiens, UniProt P52564)
[2] = molecular target: Phosphatidylinositol 4,5-bisphosphate 3-kinase catalytic subunit delta ; PIK3CD ; O00329 (Homo sapiens, UniProt O00329)
[3] = molecular target: Serine/threonine-protein kinase Chk2 ; CHEK2 ; O96017 (Homo sapiens, UniProt O96017)
[4] = molecular target: Ephrin type-A receptor 4 ; EPHA4 ; P54764 (Homo sapiens, UniProt P54764)
[5] = molecular target: T1, Serine/threonine-protein kinase NLK ; NLK ; Q9UBE8 (Homo sapiens, UniProt Q9UBE8)
T1 sequence (Q9UBE8 1-527): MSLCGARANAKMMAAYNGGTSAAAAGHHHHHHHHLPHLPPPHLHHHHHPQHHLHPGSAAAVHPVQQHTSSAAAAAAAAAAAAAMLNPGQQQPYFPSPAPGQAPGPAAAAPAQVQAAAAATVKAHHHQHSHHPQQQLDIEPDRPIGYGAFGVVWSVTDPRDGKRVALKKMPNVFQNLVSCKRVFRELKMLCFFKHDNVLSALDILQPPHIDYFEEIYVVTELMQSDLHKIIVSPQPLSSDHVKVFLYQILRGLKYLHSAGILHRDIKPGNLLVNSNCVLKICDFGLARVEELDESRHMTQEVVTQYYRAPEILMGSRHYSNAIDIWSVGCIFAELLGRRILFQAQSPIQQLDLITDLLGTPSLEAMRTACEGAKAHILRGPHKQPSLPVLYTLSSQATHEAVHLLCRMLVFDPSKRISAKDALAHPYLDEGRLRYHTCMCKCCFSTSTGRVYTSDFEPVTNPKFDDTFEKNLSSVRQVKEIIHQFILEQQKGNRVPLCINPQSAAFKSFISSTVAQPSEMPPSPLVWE

[6] = molecular target: Isoform Beta of cGMP-dependent protein kinase 1 ; PRKG1 ; Q13976-2 (Homo sapiens, UniProt Q13976)
[7] = molecular target: Serine/threonine-protein kinase 10 ; STK10 ; O94804 (Homo sapiens, UniProt O94804)
[8] = molecular target: Ribosomal protein S6 kinase alpha-3 ; RPS6KA3 ; P51812 (Homo sapiens, UniProt P51812)
[9] = molecular target: Rho-associated protein kinase 2 ; ROCK2 ; O75116 (Homo sapiens, UniProt O75116)
[10] = molecular target: T2, Tyrosine-protein kinase Tec ; TEC ; P42680 (Homo sapiens, UniProt P42680)
T2 sequence (P42680 1-631): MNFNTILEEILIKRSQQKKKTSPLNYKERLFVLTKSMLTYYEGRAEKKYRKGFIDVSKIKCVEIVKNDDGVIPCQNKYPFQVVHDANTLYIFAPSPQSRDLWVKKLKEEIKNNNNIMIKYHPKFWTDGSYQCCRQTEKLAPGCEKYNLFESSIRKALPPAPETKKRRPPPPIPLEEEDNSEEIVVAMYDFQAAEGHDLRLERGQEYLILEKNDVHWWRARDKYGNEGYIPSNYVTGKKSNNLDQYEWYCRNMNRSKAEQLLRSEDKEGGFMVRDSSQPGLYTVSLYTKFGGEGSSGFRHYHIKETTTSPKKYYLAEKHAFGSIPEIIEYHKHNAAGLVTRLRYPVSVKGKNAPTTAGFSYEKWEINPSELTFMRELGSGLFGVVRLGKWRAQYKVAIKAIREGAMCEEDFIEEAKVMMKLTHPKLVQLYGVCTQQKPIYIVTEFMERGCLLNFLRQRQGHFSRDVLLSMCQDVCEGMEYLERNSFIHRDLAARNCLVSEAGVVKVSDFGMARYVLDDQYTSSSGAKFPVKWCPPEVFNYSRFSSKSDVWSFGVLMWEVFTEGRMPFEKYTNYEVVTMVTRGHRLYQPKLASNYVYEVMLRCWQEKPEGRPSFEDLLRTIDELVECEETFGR

[11] = molecular target: Serine/threonine-protein kinase D1 ; PRKD1 ; Q15139 (Homo sapiens, UniProt Q15139)
[12] = molecular target: Ribosomal protein S6 kinase alpha-4 ; RPS6KA4 ; O75676 (Homo sapiens, UniProt O75676)
[13] = molecular target: Serine/threonine-protein kinase BRSK1 ; BRSK1 ; Q8TDC3 (Homo sapiens, UniProt Q8TDC3)
[14] = molecular target: Vascular endothelial growth factor receptor 3 ; FLT4 ; P35916 (Homo sapiens, UniProt P35916)
[15] = molecular target: Mitogen-activated protein kinase 1 ; MAPK1 ; P28482 (Homo sapiens, UniProt P28482)
[16] = read-out: BAY-1251152 (10 µM) / %Intensity relative to DMSO
[17] = read-out: BAY-1143572 (10 µM) / %Intensity relative to DMSO

Sequence of Ephrin type-A receptor 4 ; EPHA4 ; P54764 (P54764 whole entry): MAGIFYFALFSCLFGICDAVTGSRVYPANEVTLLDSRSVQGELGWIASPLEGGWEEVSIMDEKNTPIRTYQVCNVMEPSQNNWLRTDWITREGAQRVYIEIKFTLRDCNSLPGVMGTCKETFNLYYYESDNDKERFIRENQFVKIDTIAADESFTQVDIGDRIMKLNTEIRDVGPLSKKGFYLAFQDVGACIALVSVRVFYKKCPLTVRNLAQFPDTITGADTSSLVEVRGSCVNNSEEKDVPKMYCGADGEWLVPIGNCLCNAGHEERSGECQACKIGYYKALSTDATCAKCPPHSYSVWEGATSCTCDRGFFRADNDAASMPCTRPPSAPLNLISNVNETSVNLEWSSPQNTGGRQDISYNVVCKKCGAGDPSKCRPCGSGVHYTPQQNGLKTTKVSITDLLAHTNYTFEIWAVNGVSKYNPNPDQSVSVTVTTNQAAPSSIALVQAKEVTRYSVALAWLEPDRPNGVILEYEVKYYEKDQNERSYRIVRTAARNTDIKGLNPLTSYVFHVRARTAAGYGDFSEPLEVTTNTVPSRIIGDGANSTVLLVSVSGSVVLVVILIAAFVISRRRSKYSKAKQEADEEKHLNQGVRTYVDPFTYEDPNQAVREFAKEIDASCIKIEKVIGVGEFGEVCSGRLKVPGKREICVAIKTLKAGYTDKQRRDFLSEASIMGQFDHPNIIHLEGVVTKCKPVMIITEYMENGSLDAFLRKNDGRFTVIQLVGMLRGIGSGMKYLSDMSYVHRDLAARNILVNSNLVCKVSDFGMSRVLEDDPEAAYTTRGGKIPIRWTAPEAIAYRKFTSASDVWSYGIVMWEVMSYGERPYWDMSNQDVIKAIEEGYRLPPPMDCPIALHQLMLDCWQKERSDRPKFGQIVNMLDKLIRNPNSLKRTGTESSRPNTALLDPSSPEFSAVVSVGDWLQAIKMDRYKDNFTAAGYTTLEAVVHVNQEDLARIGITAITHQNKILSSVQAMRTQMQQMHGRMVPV
Sequence of Vascular endothelial growth factor receptor 3 ; FLT4 ; P35916 (P35916 whole entry): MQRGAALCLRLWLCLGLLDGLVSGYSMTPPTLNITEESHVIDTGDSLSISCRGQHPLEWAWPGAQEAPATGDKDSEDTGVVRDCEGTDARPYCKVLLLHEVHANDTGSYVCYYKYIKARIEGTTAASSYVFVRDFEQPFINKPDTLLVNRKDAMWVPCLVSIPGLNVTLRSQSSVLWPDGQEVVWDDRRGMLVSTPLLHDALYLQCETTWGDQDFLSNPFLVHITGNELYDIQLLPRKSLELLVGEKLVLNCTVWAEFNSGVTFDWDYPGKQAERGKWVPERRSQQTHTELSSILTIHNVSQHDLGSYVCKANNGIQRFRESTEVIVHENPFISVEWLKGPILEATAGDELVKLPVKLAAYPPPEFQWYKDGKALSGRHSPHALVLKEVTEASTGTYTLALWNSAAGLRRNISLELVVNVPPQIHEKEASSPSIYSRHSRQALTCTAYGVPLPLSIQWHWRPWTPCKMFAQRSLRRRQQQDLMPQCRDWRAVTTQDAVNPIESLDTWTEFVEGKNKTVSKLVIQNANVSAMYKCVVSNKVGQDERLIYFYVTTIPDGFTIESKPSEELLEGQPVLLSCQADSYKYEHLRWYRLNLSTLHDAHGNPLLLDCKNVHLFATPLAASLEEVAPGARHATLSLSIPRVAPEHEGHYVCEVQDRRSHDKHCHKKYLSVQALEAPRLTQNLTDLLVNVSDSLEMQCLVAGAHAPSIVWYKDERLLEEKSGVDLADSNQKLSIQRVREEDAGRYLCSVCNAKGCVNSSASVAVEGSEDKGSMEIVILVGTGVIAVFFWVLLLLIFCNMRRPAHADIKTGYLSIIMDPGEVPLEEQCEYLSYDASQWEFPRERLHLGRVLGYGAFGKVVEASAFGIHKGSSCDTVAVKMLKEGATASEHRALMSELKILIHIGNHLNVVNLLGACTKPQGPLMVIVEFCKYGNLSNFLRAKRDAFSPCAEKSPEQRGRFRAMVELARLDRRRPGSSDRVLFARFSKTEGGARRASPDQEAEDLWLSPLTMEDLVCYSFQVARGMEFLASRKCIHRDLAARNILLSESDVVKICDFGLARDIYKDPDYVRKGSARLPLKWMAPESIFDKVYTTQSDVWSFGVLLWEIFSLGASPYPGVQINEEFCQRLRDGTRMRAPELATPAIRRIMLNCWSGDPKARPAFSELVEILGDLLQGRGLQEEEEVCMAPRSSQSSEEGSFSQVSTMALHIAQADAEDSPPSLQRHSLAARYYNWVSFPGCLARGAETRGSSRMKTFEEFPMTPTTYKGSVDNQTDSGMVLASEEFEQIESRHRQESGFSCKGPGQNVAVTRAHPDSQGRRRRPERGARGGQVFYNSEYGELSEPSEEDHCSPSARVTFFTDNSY
Sequence of Isoform Beta of cGMP-dependent protein kinase 1 ; PRKG1 ; Q13976-2 (Q13976 whole entry, canonical isoform): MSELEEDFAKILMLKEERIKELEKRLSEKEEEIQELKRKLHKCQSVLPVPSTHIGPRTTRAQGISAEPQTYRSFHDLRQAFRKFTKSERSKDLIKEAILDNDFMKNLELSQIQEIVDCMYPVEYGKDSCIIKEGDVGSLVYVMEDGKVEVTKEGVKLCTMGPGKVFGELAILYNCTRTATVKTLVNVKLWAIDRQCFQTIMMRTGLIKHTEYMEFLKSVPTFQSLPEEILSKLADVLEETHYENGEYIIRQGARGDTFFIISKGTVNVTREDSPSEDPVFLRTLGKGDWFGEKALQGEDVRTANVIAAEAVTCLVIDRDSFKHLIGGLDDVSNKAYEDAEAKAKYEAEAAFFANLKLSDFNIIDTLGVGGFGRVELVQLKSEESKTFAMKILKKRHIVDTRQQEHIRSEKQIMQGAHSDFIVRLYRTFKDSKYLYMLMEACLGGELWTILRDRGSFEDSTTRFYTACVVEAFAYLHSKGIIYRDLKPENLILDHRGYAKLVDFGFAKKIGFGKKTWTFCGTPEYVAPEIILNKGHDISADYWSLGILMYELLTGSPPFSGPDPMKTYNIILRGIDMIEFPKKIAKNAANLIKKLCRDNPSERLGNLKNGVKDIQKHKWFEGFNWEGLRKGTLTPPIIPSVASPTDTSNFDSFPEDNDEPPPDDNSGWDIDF
Sequence of Phosphatidylinositol 4,5-bisphosphate 3-kinase catalytic subunit delta ; PIK3CD ; O00329 (O00329 whole entry, one chain of several): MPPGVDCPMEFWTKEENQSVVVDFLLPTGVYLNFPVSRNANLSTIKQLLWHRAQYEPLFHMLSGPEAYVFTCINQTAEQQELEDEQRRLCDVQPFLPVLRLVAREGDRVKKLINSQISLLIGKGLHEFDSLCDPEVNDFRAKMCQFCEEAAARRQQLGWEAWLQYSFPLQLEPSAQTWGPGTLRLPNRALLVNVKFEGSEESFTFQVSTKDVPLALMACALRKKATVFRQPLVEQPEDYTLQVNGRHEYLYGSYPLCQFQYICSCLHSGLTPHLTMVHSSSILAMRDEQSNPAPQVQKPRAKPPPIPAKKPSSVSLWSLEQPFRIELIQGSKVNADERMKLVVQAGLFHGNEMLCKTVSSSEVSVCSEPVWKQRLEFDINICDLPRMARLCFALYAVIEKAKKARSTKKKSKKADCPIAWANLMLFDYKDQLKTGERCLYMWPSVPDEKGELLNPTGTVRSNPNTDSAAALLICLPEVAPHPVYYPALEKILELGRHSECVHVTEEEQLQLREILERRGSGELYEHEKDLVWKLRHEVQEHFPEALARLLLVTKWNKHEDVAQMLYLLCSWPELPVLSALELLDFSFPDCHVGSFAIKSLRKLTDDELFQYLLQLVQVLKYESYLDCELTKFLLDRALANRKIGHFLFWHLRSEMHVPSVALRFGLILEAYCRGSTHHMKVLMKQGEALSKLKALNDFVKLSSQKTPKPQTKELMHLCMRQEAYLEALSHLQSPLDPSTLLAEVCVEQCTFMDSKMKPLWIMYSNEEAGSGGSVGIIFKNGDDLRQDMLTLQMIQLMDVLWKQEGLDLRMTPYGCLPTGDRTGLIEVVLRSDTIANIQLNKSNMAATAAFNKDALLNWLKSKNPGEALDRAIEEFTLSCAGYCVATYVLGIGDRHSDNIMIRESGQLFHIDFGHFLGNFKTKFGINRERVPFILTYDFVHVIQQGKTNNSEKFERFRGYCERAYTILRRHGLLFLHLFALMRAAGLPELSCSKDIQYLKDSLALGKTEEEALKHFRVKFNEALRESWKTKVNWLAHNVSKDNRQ
Sequence of Serine/threonine-protein kinase D1 ; PRKD1 ; Q15139 (Q15139 whole entry, one chain of several): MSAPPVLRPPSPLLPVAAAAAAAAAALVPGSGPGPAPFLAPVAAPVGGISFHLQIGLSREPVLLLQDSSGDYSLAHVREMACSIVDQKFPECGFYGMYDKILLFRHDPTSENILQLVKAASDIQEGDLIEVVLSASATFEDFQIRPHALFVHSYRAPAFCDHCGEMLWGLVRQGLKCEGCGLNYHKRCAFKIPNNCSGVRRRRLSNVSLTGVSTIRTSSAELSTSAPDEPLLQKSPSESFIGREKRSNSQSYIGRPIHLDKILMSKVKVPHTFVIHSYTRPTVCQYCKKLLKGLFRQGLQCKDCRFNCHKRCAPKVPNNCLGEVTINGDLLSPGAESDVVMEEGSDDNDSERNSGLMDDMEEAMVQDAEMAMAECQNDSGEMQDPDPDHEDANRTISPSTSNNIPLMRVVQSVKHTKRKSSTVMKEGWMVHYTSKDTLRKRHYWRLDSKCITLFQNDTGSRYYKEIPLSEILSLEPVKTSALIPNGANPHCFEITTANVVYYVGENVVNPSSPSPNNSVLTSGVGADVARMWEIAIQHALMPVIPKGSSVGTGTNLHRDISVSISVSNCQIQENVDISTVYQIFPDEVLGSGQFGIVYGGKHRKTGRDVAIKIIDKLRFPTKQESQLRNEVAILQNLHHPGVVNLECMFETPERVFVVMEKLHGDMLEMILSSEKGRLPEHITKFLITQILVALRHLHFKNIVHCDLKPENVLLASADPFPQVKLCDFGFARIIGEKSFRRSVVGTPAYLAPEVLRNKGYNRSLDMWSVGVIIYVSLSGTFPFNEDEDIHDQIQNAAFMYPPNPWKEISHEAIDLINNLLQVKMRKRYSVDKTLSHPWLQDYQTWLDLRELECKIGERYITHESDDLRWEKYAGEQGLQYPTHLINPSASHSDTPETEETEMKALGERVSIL

remaining activity at 10 µM [1, 16]: 123%
remaining activity at 10 µM [2, 16]: 113%
remaining activity at 10 µM [3, 16]: 106%
remaining activity at 10 µM [4, 16]: 105%
remaining activity at 10 µM [5, 16]: 115%
remaining activity at 10 µM [6, 16]: 117%
remaining activity at 10 µM [7, 16]: 74.5%
remaining activity at 10 µM [8, 16]: 107%
remaining activity at 10 µM [9, 16]: 110%
remaining activity at 10 µM [10, 16]: 104%
remaining activity at 10 µM [11, 16]: 154%
remaining activity at 10 µM [12, 16]: 104%
remaining activity at 10 µM [13, 16]: 96%
remaining activity at 10 µM [14, 16]: 104%
remaining activity at 10 µM [15, 16]: 105%
SMILES: COc1cc(F)ccc1-c1cc(Nc2cc(CS(C)(=N)=O)ccn2)ncc1F (stereo not drawn) [BAY-1251152]

remaining activity at 10 µM [1, 17]: 142%
remaining activity at 10 µM [2, 17]: 116%
remaining activity at 10 µM [3, 17]: 116%
remaining activity at 10 µM [4, 17]: 91.7%
remaining activity at 10 µM [5, 17]: 103%
remaining activity at 10 µM [6, 17]: 130%
remaining activity at 10 µM [7, 17]: 91.3%
remaining activity at 10 µM [8, 17]: 115%
remaining activity at 10 µM [9, 17]: 120%
remaining activity at 10 µM [10, 17]: 89.2%
remaining activity at 10 µM [11, 17]: 155%
remaining activity at 10 µM [12, 17]: 119%
remaining activity at 10 µM [13, 17]: 95.3%
remaining activity at 10 µM [14, 17]: 115%
remaining activity at 10 µM [15, 17]: 112%
SMILES: COc1cc(F)ccc1-c1ncnc(Nc2cccc(C[S@](C)(=N)=O)c2)n1 [BAY-1143572]
